# The source made the active and inactive calls. No cut-off for these calls is given here.
# What was measured:
# A549 [1] = experiment: Cytotoxicity against human A549 cells assessed as inhibition of cell viability incubated for 48 hrs by CCK8 assay; format: functional, cell-based; settings: A549, 48 h
# NCI-H1299 = experiment: Cytotoxicity against human NCI-H1299 cells assessed as inhibition of cell viability incubated for 48 hrs by CCK8 assay; format: functional, cell-based; settings: NCI-H1299, 48 h
# A549 [2] = experiment: Induction of apoptosis in human A549 cells assessed as early apoptotic cells at 2.5 uM incubated for 48 hrs by Annexin V-FITC/PI staining based flow cytometry (reference value: 5.02 %); format: functional
# A549 [3] = experiment: Induction of apoptosis in human A549 cells assessed as early apoptotic cells at 5 uM incubated for 48 hrs by Annexin V-FITC/PI staining based flow cytometry (reference value: 5.02 %); format: functional
# A549 [4] = experiment: Induction of apoptosis in human A549 cells assessed as activation of caspase-9 cleavage at 2.5 to 10 uM incubated for 48 hrs by Western blot analysis; format: functional, cell-based; settings: dose 2.5-10 µM
# A549 [5] = experiment: Induction of apoptosis in human A549 cells assessed as necrotic cells at 5 uM incubated for 48 hrs by Annexin V-FITC/PI staining based flow cytometry (reference value: 1.41 %); format: functional
# A549 [6] = experiment: Induction of apoptosis in human A549 cells assessed as necrotic cells at 2.5 uM incubated for 48 hrs by Annexin V-FITC/PI staining based flow cytometry (reference value: 1.41 %); format: functional
# A549 [7] = experiment: Induction of apoptosis in human A549 cells assessed as necrotic cells at 10 uM incubated for 48 hrs by Annexin V-FITC/PI staining based flow cytometry (reference value: 1.41 %); format: functional
# A549 [8] = experiment: Induction of apoptosis in human A549 cells assessed as viable cells at 5 uM incubated for 48 hrs by Annexin V-FITC/PI staining based flow cytometry (reference value: 87.8 %); format: functional; settings: read-out: Activity
# A549 [9] = experiment: Induction of apoptosis in human A549 cells assessed as activation of caspase-3 cleavage at 2.5 to 10 uM incubated for 48 hrs by Western blot analysis; format: functional, cell-based; settings: dose 2.5-10 µM
# A549 [10] = experiment: Induction of apoptosis in human A549 cells assessed as increase in BAD level at 2.5 to 10 uM incubated for 48 hrs by Western blot analysis; format: functional, cell-based; settings: dose 2.5-10 µM
# A549 [11] = experiment: Effect on c-Myc mRNA expression in human A549 cells at 10 uM by Q-PCR analysis; format: functional, cell-based
# A549 [12] = experiment: Induction of apoptosis in human A549 cells assessed as early apoptotic cells at 10 uM incubated for 48 hrs by Annexin V-FITC/PI staining based flow cytometry (reference value: 5.02 %); format: functional
# A549 [13] = experiment: Induction of apoptosis in human A549 cells assessed as viable cells at 10 uM incubated for 48 hrs by Annexin V-FITC/PI staining based flow cytometry (reference value: 87.8 %); format: functional; settings: read-out: Activity
# A549 [14] = experiment: Induction of apoptosis in human A549 cells at 15 uM incubated for 48 hrs by Annexin V-FITC/PI staining based flow cytometry relative to control; format: functional
# A549 [15] = experiment: Induction of apoptosis in human A549 cells assessed as increase in BAX level at 2.5 to 10 uM incubated for 48 hrs by Western blot analysis; format: functional, cell-based; settings: dose 2.5-10 µM
# A549 [16] = experiment: Induction of apoptosis in human A549 cells assessed as late apoptotic cells at 5 uM incubated for 48 hrs by Annexin V-FITC/PI staining based flow cytometry (reference value: 5.79 %); format: functional
# [17] = target: Myc proto-oncogene protein (Homo sapiens) (UniProt P01106); experiment: Inhibition of c-Myc in human NCI-H1299 cells by Western blot analysis; format: cell-based; settings: dose <= 10.0 µM
# Sequence of Myc proto-oncogene protein (Homo sapiens) (P01106 whole entry): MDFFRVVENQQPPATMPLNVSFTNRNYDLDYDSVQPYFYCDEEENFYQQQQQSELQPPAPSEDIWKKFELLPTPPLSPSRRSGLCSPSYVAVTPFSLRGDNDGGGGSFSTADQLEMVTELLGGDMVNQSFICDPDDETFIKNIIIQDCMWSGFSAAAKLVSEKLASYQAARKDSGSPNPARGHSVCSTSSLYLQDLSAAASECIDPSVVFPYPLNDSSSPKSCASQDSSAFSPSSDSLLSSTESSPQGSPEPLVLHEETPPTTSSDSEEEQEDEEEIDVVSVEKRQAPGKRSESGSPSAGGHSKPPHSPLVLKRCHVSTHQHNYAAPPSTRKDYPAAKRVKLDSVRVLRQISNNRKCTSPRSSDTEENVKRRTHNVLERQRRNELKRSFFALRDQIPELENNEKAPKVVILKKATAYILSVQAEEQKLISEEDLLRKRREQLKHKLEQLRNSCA
# A549 [18] = experiment: Induction of apoptosis in human A549 cells at 5 uM incubated for 48 hrs by Annexin V-FITC/PI staining based flow cytometry relative to control; format: functional
# A549 [19] = experiment: Induction of apoptosis in human A549 cells assessed as late apoptotic cells at 2.5 uM incubated for 48 hrs by Annexin V-FITC/PI staining based flow cytometry (reference value: 5.79 %); format: functional
# [20] = target: Myc proto-oncogene protein (Homo sapiens) (UniProt P01106); experiment: Inhibition of c-Myc in human A549 cells assessed as decrease in half life at 10 uM pretreated for 12 hrs followed by CHX treatment for 1 to 2 hrs by Western blot analysis; format: cell-based; settings: time 13-14 hrs
# A549 [21] = experiment: Induction of apoptosis in human A549 cells incubated for 48 hrs by Annexin V-FITC/PI staining based flow cytometry; format: functional, cell-based; settings: dose 5-15 µM
# [22] = target: Myc proto-oncogene protein (Homo sapiens) (UniProt P01106); experiment: Inhibition of c-Myc in human A549 cells at 10 uM incubated for 24 hrs in presence of MG132 by Western blot analysis; format: cell-based
# A549 [23] = experiment: Induction of apoptosis in human A549 cells assessed as late apoptotic cells at 10 uM incubated for 48 hrs by Annexin V-FITC/PI staining based flow cytometry (reference value: 5.79 %); format: functional
# [24] = Cytotoxicity against human BEAS-2B cells assessed as cell viability upto 20 uM incubated for 48 hrs by CCK8 assay relative to control; format: toxicity, cell-based; settings: read-out: Activity
# [25] = target: Myc proto-oncogene protein (Homo sapiens) (UniProt P01106); experiment: Inhibition of c-Myc in human A549 cells by Western blot analysis; format: cell-based; settings: dose <= 10.0 µM
# A549 [26] = experiment: Induction of apoptosis in human A549 cells assessed as decrease in Bcl-2 level at 2.5 to 10 uM incubated for 48 hrs by Western blot analysis; format: functional, cell-based; settings: dose 2.5-10 µM
# A549 [27] = experiment: Induction of apoptosis in human A549 cells assessed as viable cells at 2.5 uM incubated for 48 hrs by Annexin V-FITC/PI staining based flow cytometry (reference value: 87.8 %); format: functional; settings: read-out: Activity
smiles,measurement,setting,value
CN(C)CCCn1c(-c2cc(-c3ccc(N4CCOCC4)cc3)on2)nc2ccccc21,IC50,A549 [1],10.1 µM
same,IC50,NCI-H1299,22.3 µM
c1ccc2c(c1)nc(-c1cc(-c3ccc(N4CCCCCC4)cc3)on1)n2CCN1CCCCC1,IC50,A549 [1],10.9 µM
same,IC50,NCI-H1299,21.8 µM
CN(C)c1ccc(-c2cc(-c3nc4ccccc4n3CCCN3CCOCC3)no2)cc1,IC50,A549 [1],13.6 µM
same,IC50,NCI-H1299,17 µM
c1ccc2c(c1)nc(-c1cc(-c3ccc(N4CCCCCC4)cc3)on1)n2CCN1CCOCC1,IC50,A549 [1],10.9 µM
same,IC50,NCI-H1299,21 µM
c1ccc2c(c1)nc(-c1cc(-c3ccc(N4CCOCC4)cc3)on1)n2CCN1CCOCC1,IC50,A549 [1],8.46 µM
same,IC50,NCI-H1299,21 µM
c1ccc2c(c1)nc(-c1cc(-c3ccc(N4CCCCC4)cc3)on1)n2CCCN1CCOCC1,IC50,A549 [1],13.8 µM
same,IC50,NCI-H1299,24.2 µM
Cc1cc(C)cc(OCCn2c(C3CC(=O)N(c4cccc(C)c4)C3)nc3ccccc32)c1 (stereo not given),IC50,A549 [1],15.3 µM
same,IC50,NCI-H1299,18.8 µM
c1ccc2c(c1)nc(-c1cc(-c3ccc(N4CCCCC4)cc3)on1)n2CCCN1CCCCC1,IC50,A549 [1],13.6 µM
same,IC50,NCI-H1299,29.1 µM
c1ccc2c(c1)nc(-c1cc(-c3ccc(N4CCCCC4)cc3)on1)n2CCN1CCOCC1,IC50,A549 [1],11.2 µM
same,IC50,NCI-H1299,23.8 µM
CN(C)c1ccc(-c2cc(-c3nc4ccccc4n3CCCN3CCCCC3)no2)cc1,IC50,A549 [1],11.6 µM
same,IC50,NCI-H1299,16.9 µM
CN(C)c1ccc(-c2cc(-c3nc4ccccc4n3CCN3CCCCCC3)no2)cc1,IC50,A549 [1],11.4 µM
same,IC50,NCI-H1299,18.2 µM
c1ccc2c(c1)nc(-c1cc(-c3ccc(N4CCOCC4)cc3)on1)n2CCN1CCCC1,Activity,A549 [2],4.67%
same,Activity,A549 [3],11.7%
same,Activity,A549 [4],Active
same,Activity,A549 [5],2.44%
same,Activity,A549 [6],5.52%
same,Activity,A549 [7],3.66%
same,viability at 5 µM,A549 [8],66.3%
same,Activity,A549 [9],Active
same,Activity,A549 [10],Active
same,Activity,A549 [11],inactive
same,Activity,A549 [12],7.88%
same,viability at 10 µM,A549 [13],43.2%
same,Activity,A549 [14],53%
same,Activity,A549 [15],Active
same,Activity,A549 [16],19.5%
same,inhibition,[17],Dose-dependent-effect
same,Activity,A549 [18],22.3%
same,Activity,A549 [19],17.7%
same,inhibition,[20],Active
same,Activity,A549 [21],Dose-dependent-effect
same,inhibition,[22],inactive
same,Activity,A549 [23],45.2%
same,IC50,A549 [1],6.32 µM
same,"viability at 48 h, 20 µM",[24],> 90%
same,inhibition,[25],Dose-dependent-effect
same,IC50,NCI-H1299,11.4 µM
same,Activity,A549 [26],Active
same,viability at 2.5 µM,A549 [27],72.1%
Cc1ccc(C(=O)n2c(-c3cc(-c4ccc(N5CCOCC5)cc4)on3)nc3ccccc32)cc1,IC50,A549 [1],19.2 µM
same,IC50,NCI-H1299,22.2 µM
Fc1ccc(-c2cc(-c3nc4ccccc4n3Cc3ccccc3)no2)cc1,IC50,A549 [1],> 40 µM
same,IC50,NCI-H1299,> 40 µM
c1ccc2c(c1)nc(-c1cc(-c3ccc(N4CCOCC4)cc3)on1)n2CCCN1CCOCC1,IC50,A549 [1],13.6 µM
same,IC50,NCI-H1299,23.2 µM
O=C(c1ccccc1)n1c(-c2cc(-c3ccc(F)cc3)on2)nc2ccccc21,IC50,A549 [1],> 40 µM
same,IC50,NCI-H1299,23.9 µM
CN(C)c1ccc(-c2cc(-c3nc4ccccc4n3CCN3CCCCC3)no2)cc1,IC50,A549 [1],9.22 µM
same,IC50,NCI-H1299,13.1 µM
Cc1cc(C)cc(C(=O)n2c(-c3cc(-c4ccc(N5CCOCC5)cc4)on3)nc3ccccc32)c1,IC50,A549 [1],19.2 µM
same,IC50,NCI-H1299,> 40 µM
c1ccc2c(c1)nc(-c1cc(-c3ccc(N4CCCCC4)cc3)on1)n2CCN1CCCCC1,IC50,A549 [1],9.23 µM
same,IC50,NCI-H1299,21.5 µM
c1ccc2c(c1)nc(-c1cc(-c3ccc(N4CCOCC4)cc3)on1)n2CCCN1CCCCC1,IC50,A549 [1],6.25 µM
same,IC50,NCI-H1299,20.2 µM
CCN(CC)CCCn1c(-c2cc(-c3ccc(N4CCOCC4)cc3)on2)nc2ccccc21,IC50,A549 [1],8.53 µM
same,IC50,NCI-H1299,22.1 µM
CCc1ccc(C(=O)n2c(-c3cc(-c4ccc(N5CCOCC5)cc4)on3)nc3ccccc32)cc1,IC50,A549 [1],23.6 µM
same,IC50,NCI-H1299,27.6 µM

# From ChEMBL document CHEMBL6087414, “Discovery of 4-(4-(3-(1-(2-(piperidin-1-yl)ethyl)-1H-benzo[d]imidazole-2-yl)isoxazol-5-yl)phenyl)morpholine as a novel c-Myc inhibitor against lung cancer in vitro and in vivo” (Eur J Med Chem, 2025)
